Data as given in US20220105051A1, “COMPOUNDS FOR INCREASING MHC-I EXPRESSION AND MODULATING HISTONE DEACETYLASE ACTIVITY” (Cava Healthcare Inc., priority 2019, published 2022).
“Also recorded” adds a separate entry of the source.

Experiments:
[1] = test system: TAP, MHC class I, and HDACs 8 and 10; experiment: mRNA expression in A9 cells (RT-PCR); format: cell-based, murine; details: 0.064 μmol
Text: Methods primarily used: Fluorescence Activated Cell Sorting (FACS), western blot, RealTime-PCR (RT-PCR), Proteome Profiler Mouse Cytokine Array Kit (Panel A).

[2] = target: T1, HDAC1 (Homo sapiens, UniProt Q13547); experiment: Individualized HDAC assay, HDAC1; format: biochemical; details: purified enzyme, 5 to 0.02 μM
T1 construct: purchased BPS Biosciences
T1 sequence (Q13547 whole entry): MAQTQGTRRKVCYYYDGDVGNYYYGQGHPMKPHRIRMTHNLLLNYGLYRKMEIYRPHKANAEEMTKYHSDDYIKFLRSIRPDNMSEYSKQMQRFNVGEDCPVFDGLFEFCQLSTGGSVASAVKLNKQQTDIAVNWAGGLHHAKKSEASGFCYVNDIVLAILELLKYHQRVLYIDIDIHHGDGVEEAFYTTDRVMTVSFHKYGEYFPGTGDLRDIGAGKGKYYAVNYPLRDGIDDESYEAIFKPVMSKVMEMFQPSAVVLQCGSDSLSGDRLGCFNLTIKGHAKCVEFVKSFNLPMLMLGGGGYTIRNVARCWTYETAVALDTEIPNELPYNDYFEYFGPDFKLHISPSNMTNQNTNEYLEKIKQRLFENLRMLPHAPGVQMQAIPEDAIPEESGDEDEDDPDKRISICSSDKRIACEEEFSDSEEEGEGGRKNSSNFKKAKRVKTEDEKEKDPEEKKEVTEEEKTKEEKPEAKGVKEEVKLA
Method: (§1) The activity of the curcuphenol analogues was assessed with purified HDAC enzymes from all classes I, II, and IV, as well as a select member of HDAC class III (SIRT1). HDACs 1-9 and SIRT1 were evaluated using HDAC Fluorogenic Assay Kits (BPS Biosciences). All assays were completed in black-sided clear-bottom 96 well plates (PerkinElmer), and all treatments were plated in triplicates. Treatment started at 5 μM and was two-fold diluted to a concentration 0.02 μM. The assays were measured using the Synergy HI hybrid reader (BioTek) and Gen5 software (BioTek), excitation was set to 360 nm and detection was measured at 450 nm with a gain of 100. […] Luminescence was read 30 minutes after HDAC-Glo™I/II reagent was added using the Synergy HI hybrid reader (BioTek) and Gen5 software (Bio-Tek). […] The relative mean of activity of the HDAC being measured was determined and all wells that received treatment were divided this average, to give a percentage of activity.
(§2) To evaluate the effect of the compounds on specific HDACs, their activity was assessed with purified HDAC enzymes from all classes I, II, and IV, as well as a select member of HDAC class III (SIRT1). HDACs 1-9 and SIRT1 were evaluated using HDAC Fluorogenic Assay Kits (BPS Biosciences) following the manufacturer's recommendations. […] The assays were measured using the Synergy HI hybrid reader (BioTek) and Gen5 software (Bio-Tek). […]

[3] = target: T2, HDAC4 (Homo sapiens, UniProt P56524); experiment: Individualized HDAC assay, HDAC4; format: biochemical; details: purified enzyme, 5 to 0.02 μM
T2 construct: purchased BPS Biosciences
T2 sequence (P56524 whole entry): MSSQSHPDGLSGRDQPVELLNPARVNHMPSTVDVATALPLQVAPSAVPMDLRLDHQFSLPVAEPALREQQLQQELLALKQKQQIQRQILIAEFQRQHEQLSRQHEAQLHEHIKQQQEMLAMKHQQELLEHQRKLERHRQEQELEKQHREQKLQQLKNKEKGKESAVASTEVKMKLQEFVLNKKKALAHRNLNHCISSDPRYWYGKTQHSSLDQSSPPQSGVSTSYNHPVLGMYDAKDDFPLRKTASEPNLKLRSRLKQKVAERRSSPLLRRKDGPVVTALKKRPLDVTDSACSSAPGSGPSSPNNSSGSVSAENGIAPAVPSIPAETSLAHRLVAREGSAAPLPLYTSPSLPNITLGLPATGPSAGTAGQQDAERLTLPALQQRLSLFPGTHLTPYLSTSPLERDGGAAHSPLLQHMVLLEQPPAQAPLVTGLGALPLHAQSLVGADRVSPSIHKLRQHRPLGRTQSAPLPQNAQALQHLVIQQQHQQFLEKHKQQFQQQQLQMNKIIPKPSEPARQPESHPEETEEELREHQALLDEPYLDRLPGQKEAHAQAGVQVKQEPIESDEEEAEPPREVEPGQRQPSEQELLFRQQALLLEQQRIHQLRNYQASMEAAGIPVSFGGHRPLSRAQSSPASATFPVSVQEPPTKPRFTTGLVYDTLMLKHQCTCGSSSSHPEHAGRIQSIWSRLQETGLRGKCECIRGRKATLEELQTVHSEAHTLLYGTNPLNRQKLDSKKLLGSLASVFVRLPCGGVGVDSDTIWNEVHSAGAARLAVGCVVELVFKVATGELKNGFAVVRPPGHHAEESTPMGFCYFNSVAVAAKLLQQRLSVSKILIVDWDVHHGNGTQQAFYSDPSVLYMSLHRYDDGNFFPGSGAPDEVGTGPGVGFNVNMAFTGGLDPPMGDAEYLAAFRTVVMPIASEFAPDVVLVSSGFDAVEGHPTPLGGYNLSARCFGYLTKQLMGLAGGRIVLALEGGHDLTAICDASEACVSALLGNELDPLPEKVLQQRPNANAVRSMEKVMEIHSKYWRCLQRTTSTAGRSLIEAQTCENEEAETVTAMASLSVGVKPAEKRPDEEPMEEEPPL
Method: The activity of the curcuphenol analogues was assessed with purified HDAC enzymes from all classes I, II, and IV, as well as a select member of HDAC class III (SIRT1). HDACs 1-9 and SIRT1 were evaluated using HDAC Fluorogenic Assay Kits (BPS Biosciences). All assays were completed in black-sided clear-bottom 96 well plates (PerkinElmer), and all treatments were plated in triplicates. Treatment started at 5 μM and was two-fold diluted to a concentration 0.02 μM. The assays were measured using the Synergy HI hybrid reader (BioTek) and Gen5 software (BioTek), excitation was set to 360 nm and detection was measured at 450 nm with a gain of 100. Alternatively HDAC 10 and 11 (BPS Biosciences) were optimized for HDAC concentration using the HDAC-Glo™ I/II Assay and Screening System (Promega). Following optimization each HDAC was run following the Promega protocol in black-sided clear-bottomed 96 well plates in triplicates with same treatments listed above (PerkinElmer). Luminescence was read 30 minutes after HDAC-Glo™I/II reagent was added using the Synergy HI hybrid reader (BioTek) and Gen5 software (Bio-Tek). […] To calculate percent activity, the average of blank wells was subtracted from all treatment groups. The relative mean of activity of the HDAC being measured was determined and all wells that received treatment were divided this average, to give a percentage of activity.
To evaluate the effect of the compounds on specific HDACs, their activity was assessed with purified HDAC enzymes from all classes I, II, and IV, as well as a select member of HDAC class III (SIRT1). HDACs 1-9 and SIRT1 were evaluated using HDAC Fluorogenic Assay Kits (BPS Biosciences) following the manufacturer's recommendations. Compound treatment started at 5 μM and was two-fold diluted to a concentration 0.02 μM. […] The assays were measured using the Synergy HI hybrid reader (BioTek) and Gen5 software (Bio-Tek). […] To calculate the fold change in HDAC activity, the values from each treated well were divided by the relative mean of activity of the specific HDAC being measured.

[4] = target: T3, HDAC3 (Homo sapiens, UniProt O15379); experiment: Individualized HDAC assay, HDAC3; format: biochemical; details: purified enzyme, 5 to 0.02 μM
T3 construct: purchased BPS Biosciences
T3 sequence (O15379 whole entry): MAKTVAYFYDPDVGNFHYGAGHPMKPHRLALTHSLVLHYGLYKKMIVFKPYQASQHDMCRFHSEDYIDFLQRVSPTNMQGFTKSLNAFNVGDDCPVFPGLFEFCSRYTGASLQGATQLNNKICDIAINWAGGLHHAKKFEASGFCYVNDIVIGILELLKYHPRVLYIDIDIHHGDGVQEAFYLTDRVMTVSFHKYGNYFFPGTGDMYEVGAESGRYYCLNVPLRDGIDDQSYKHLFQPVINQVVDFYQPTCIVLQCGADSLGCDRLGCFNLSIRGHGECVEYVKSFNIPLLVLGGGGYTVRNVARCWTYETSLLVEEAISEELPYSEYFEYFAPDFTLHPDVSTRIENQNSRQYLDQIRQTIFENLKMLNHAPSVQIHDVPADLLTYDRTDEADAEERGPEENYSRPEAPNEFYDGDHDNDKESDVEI
T3 sequence (Q9Y618 395-489 partner limits assumed): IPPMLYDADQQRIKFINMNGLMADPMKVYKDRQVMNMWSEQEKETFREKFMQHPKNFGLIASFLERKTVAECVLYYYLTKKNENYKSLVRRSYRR
Method: as §1, §2

[5] = Maximum tolerated dose; format: in vivo; details: for MTD at 14 days: female, C57BL/6, mouse, in vivo, ip, limited by solubility in 1% DMSO, read-out: highest maximum tolerated dose; for signs of toxicity (clinical signs, necropsy): i.p. 1.0, 3.5 and 5.2 mg/kg, 14 days, C57BL/6 mice
Method: British Columbia Cancer Agency (BCCA) completed the maximum tolerated dose study for compound P02-113, whereas P03-97-1 was assessed in-house following the same protocol. […]. The compounds were injected intraperitoneally (i.p.) at concentrations of 1.0 mg/kg (n=3), 3.5 mg/kg (n=3), or 5.2 mg/kg (n=3). These doses were based on the maximum solubility of the compounds that was determined using the known solubility of curcuphenol. Mice were assessed for clinical signs of toxicity for 14 days following injection. After 14 days the mice were euthanized and examined by necropsy, P02-113 was performed at BCCA, and P03-97-1 was performed by Animal Care Services located at the Center for Comparative Medicine on UBC Point Grey campus, Vancouver BC.
In vivo efficacy studies. Maximum tolerated dose (MTD). The maximum tolerated dose for the selected compounds, P02-113 and P03-97-1, were assessed in vivo. C57BI/6 mice were injected intraperitoneally (i.p.) with the test compounds at 3 different concentrations: 1.0 mg/kg (n=3), 3.5 mg/kg (n=3) and 5.2 mg/kg (n=3). Mice were then assessed for 14 days for clinical signs of toxicity and at the end point a necropsy was performed. […]

[6] = Pharmacokinetics in mouse plasma; format: in vivo; details: 5.2 mg/kg i.p.; for half-life in mouse plasma: Example 3; for half-life / concentration at 5 min: female; for half-life: C57BL/6, ip, mouse plasma, Example 1; for concentration at 5 min: C57BL/6, mouse, plasma, intraperitoneal, read-out: concentration in mouse plasma after 5 minutes
Text: To assess the pharmacokinetics (PK) of the curcuphenol analogues, a mass spectrometry assay was developed to measure the compounds in plasma. This assay was created by The Metabolomics Innovation Center (TMIC) at UVic-Genome BC Proteomics Centre located in Victoria, British Columbia. Eight samples were sent to TMIC for PK design for identification of P02-113 and P03-97-1 in mouse plasma. To collect plasma, mice were anesthetized using isoflurane and blood was collected by cardiac puncture. Plasma was isolated from blood in a potassium-EDTA coated Tube with K2E (BD Microtainer) and centrifugation at 10,000×g for 1 minute. Plasma was transferred to a cryovial and stored at −20° C. before being shipped on dry ice. TMIC used a chemical derivatization—UPLC-MMR/MS method to create a quantitative analysis tool for the compounds using dansyl chloride (DAN.CI) as the derivatizing reagent. 13C-labeled DAN.CI was used to produce stable isotope-labeled internal standards (ISs). All tests were performed using an UPLC-4000 QTRAP system with ESI and (+) ion detection using C18 column and acetonitrile-water-formic acid as the mobile phase.
For the PK analysis of P02-113 and P03-97-1, mice were injected i.p. and anesthetized before blood was collected by cardiac puncture at five time points (5 min, 10 min, 30 min, 1 hour and 6 hour). […] Three female C57BL/6 mice, between the ages 6-8 weeks, were used for each compound for each time point, giving a total […]. All mice were injected at the highest maximum tolerated dose (5.2 mg/kg) and plasma was prepared and stored as previously described above.
Pharmacokinetic study. […]. Three mice were used for each time point, with a total of […]. Time points were strategically chosen based on the similar structure of the compounds to TSA, an HDACi, which is known to augment TAP and MHC-I expression in metastatic tumours and to be metabolized at a high rate. The chosen time points were 5 minutes, 10 minutes, 1 hour and 6 hours.

SMILES | mRNA expression of HDAC 8 [1] | mRNA expression of HDAC 10 [1] | mRNA expression of MHC class I [1] | mRNA expression of TAP [1] | HDAC1 activity [2] | HDAC4 activity [3] | HDAC3 activity [4] | MTD at 14 days [5] | signs of toxicity (clinical signs, necropsy) [5] | level in mouse plasma at the 6 hour time point [6] | time at which plasma concentration was half of the 5 minute concentration [6] | half-life in mouse plasma [6] | half-life [6] | concentration at 5 min [6] | HDAC4 activity ([3]; listed as PO-3-97-1)
CC(C)=CCC[C@H](C)c1ccc(C)cc1O [Curcuphenol, curcuphenol] | increased mRNA expression | increased mRNA expression | increased mRNA expression | increased mRNA expression |  |  |  |  |  |  |  |  |  |  | 
CC(C)=CCCCc1ccc(C)cc1O [P02-113] |  |  |  |  | no significant change in HDAC activity | no change in activity; also recorded: did not affect the activity; also recorded: unaffected | no significant change in HDAC activity | 5.2 mg/kg | no signs of toxicity or abnormalities; also recorded: no adverse drug effects | undetectable levels | 10 min | roughly one | < 5 min | 0.4 ng/mL | 
COc1ccc(C(C)CCC=C(C)C)c(O)c1 (stereo not shown) [P03-97-1] |  |  |  |  | no significant change in HDAC activity | no change in activity; also recorded: unaffected | no significant change in HDAC activity | 5.2 mg/kg | no signs of toxicity or abnormalities; also recorded: no adverse drug effects | undetectable levels | around 20 minutes | roughly one | 15 min | 30 ng/mL | did not affect the activity
